Literature values in publication PMC5292677 (Leukemia, 2016).
Read-outs that look alike come from different tables or passages of the source.

System: patients with MF
Conditions: cited from earlier work

C1=C/COCc2cc(ccc2OCCN2CCCC2)Nc2nccc(n2)-c2cccc(c2)COC/1 [pacritinib]
Myelosuppression: lack of myelosuppression

Cc1cnc(Nc2ccc(OCCN3CCCC3)cc2)nc1Nc1cccc(S(=O)(=O)NC(C)(C)C)c1 [fedratinib]
Change in allele burden: no meaningful change in allele burden | CRP and IL-6 levels (patients treated, no reference given): CRP downregulation was reported without significant IL-6 reduction

N#CC[C@H](C1CCCC1)n1cc(-c2ncnc3[nH]ccc23)cn1 [ruxolitinib]
TNFα level (following 4 weeks' treatment): downregulated | Change in allele burden (long-term treatment): only a modest reduction

N#CCNC(=O)c1ccc(-c2ccnc(Nc3ccc(N4CCOCC4)cc3)n2)cc1 [momelotinib]
Change in allele burden: no meaningful change in allele burden
